The subject of one series is B16-F10. In words: cells. To be noted: Mus musculus, B16-F10, 48 h.
Series [1] is described as follows: Cytotoxicity against human macrophages assessed as microscopically detectable alteration of normal cell morphology after 48 hrs […]. The series is classed as cell-based. To be noted: macrophage. Background: Formazan colour is commonly taken as a measure of viable cells.
The next series has as its target Carbonic anhydrase 9 (Homo sapiens, UniProt Q16790). In words: Inhibition of human recombinant CA9 using 4-nitrophenylacetate as substrate preincubated for 15 mins by stopped-flow CO2 hydration assay.
The next series relates to MCF7. To be noted: Homo sapiens, MCF7, 48 h.
Series [2] concerns A549. In words: Induction of apoptosis in human A549 cells assessed as necrotic cells at 40 ug/ml after 48 hrs using propidium iodide staining by FACS assay. It is filed as functional.
For series [3], the system named is A549. In words: Induction of apoptosis in human A549 cells assessed as viable cells at 160 ug/ml after 48 hrs using propidium iodide staining by FACS assay. To be noted: A549, 48 h, read-out: Activity. It is filed as functional. On the technique in general: Flow cytometry measures light scatter and fluorescence of single cells or particles in a stream.
Series [4] relates to A549. In words: Induction of apoptosis in human A549 cells assessed as viable cells at 10 ug/ml after 48 hrs using propidium iodide staining by FACS assay. The series is classed as functional. To be noted: A549, 48 h, read-out: Activity.
The subject of series [5] is A549. In words: Induction of apoptosis in human A549 cells assessed as necrotic cells at 2.5 ug/ml after 48 hrs using propidium iodide staining by FACS assay. The series is classed as functional.
The subject of series [6] is A549. In words: Induction of apoptosis in human A549 cells assessed as early apoptotic cells at 2.5 ug/ml after 48 hrs using propidium iodide staining by FACS assay. The series is classed as functional.
The subject of series [7] is A549. In words: Induction of apoptosis in human A549 cells assessed as late apoptotic cells at 40 ug/ml after 48 hrs using propidium iodide staining by FACS assay. The series is classed as functional.
For series [8], the system named is A549. In words: Induction of apoptosis in human A549 cells assessed as early apoptotic cells at 160 ug/ml after 48 hrs using propidium iodide staining by FACS assay. It is filed as functional.
Series [9] deals with A549. In words: Induction of apoptosis in human A549 cells assessed as necrotic cells at 10 ug/ml after 48 hrs using propidium iodide staining by FACS assay. It is filed as functional.
The test system of series [10] is A549. In words: Induction of apoptosis in human A549 cells assessed as early apoptotic cells at 10 ug/ml after 48 hrs using propidium iodide staining by FACS assay. The series is classed as functional.
The subject of series [11] is A549. In words: Induction of apoptosis in human A549 cells assessed as late apoptotic cells at 160 ug/ml after 48 hrs using propidium iodide staining by FACS assay. It is filed as functional.
Series [12] relates to A549. In words: Induction of apoptosis in human A549 cells assessed as necrotic cells at 160 ug/ml after 48 hrs using propidium iodide staining by FACS assay. It is filed as functional.
Series [13] deals with A549. In words: Induction of apoptosis in human A549 cells assessed as late apoptotic cells at 2.5 ug/ml after 48 hrs using propidium iodide staining by FACS assay. It is filed as functional.
Series [14] deals with A549. In words: Induction of apoptosis in human A549 cells assessed as viable cells at 40 ug/ml after 48 hrs using propidium iodide staining by FACS assay. It is filed as functional. To be noted: A549, 48 h, read-out: Activity.
The subject of series [15] is A549. In words: Induction of apoptosis in human A549 cells assessed as late apoptotic cells at 10 ug/ml after 48 hrs using propidium iodide staining by FACS assay. It is filed as functional.
Series [16] has as its system A549. In words: Induction of apoptosis in human A549 cells assessed as viable cells at 2.5 ug/ml after 48 hrs using propidium iodide staining by FACS assay. It is filed as functional. To be noted: A549, 48 h, read-out: Activity.
Series [17] deals with A549. In words: Induction of apoptosis in human A549 cells assessed as early apoptotic cells at 40 ug/ml after 48 hrs using propidium iodide staining by FACS assay. It is filed as functional.

Results on 19 compounds are retold here after ChEMBL document CHEMBL2407072 (Eur J Med Chem, 2013).

Description for B16-F10: Cytotoxicity against mouse B16F10 cells after 48 hrs by CCK8 assay

Broadly, the IC50 is the concentration needed to halve the response being measured. As for `Cc1cc(NS(=O)(=O)c2ccc(/N=C/c3c(Cl)c4ccccc4oc3=O)cc2)no1`, the IC50 was determined as 270 nM in the series on B16-F10, 141 nM at Carbonic anhydrase 9 and 12 nM with MCF7. Further, the MCC in series [1] came to 0.42 µmol.
`Cc1cc(C)nc(NS(=O)(=O)c2ccc(/N=C/c3c(Cl)c4cc(C(C)(C)C)cc(C(C)(C)C)c4oc3=O)cc2)n1`: the IC50 in the series on B16-F10 was found to be 220 nM; at Carbonic anhydrase 9 it was 90 nM; in the series on MCF7, 8.8 nM. For the same compound, the MCC in series [1] turned out to be 0.73 µmol.
For the compound `O=c1oc2ccccc2c(Cl)c1/C=N/c1ccc(S(=O)(=O)Nc2nccs2)cc1`, the IC50 worked out at 300 nM in the series on B16-F10, 138 nM on Carbonic anhydrase 9 and 160 nM in the series on MCF7.
For the compound `Cc1ccc2oc(=O)c(/C=N/c3ccc(S(N)(=O)=O)cc3)c(Cl)c2c1`, the IC50 in the series with B16-F10 came to 360 nM; on Carbonic anhydrase 9 it was 85 nM; with MCF7, 270 nM. The MCC in series [1] is 1.2 µmol.
Take `CC(C)(C)c1cc(C(C)(C)C)c2oc(=O)c(/C=N/c3ccc(S(N)(=O)=O)cc3)c(Cl)c2c1`: the IC50 in the series on B16-F10 stood at 240 nM; on Carbonic anhydrase 9 it was 34 nM; with MCF7, 16 nM. Besides, the MCC in series [1] was determined as 0.58 µmol.
`Cc1ccc2oc(=O)c(/C=N/c3ccc(S(=O)(=O)Nc4nc(C)cc(C)n4)cc3)c(Cl)c2c1`: the IC50 came to 300 nM in the series on B16-F10, 67 nM on Carbonic anhydrase 9 and 25 nM in the series with MCF7.
As for `Cc1ccnc(NS(=O)(=O)c2ccc(/N=C/c3c(Cl)c4cc(C(C)(C)C)cc(C(C)(C)C)c4oc3=O)cc2)n1`, the IC50 was determined as 190 nM in the series on B16-F10, 24 nM on Carbonic anhydrase 9 and 32 nM in the series with MCF7. Also, the MCC in [1] worked out at 0.36 µmol.
Take `N=C(N)NS(=O)(=O)c1ccc(/N=C/c2c(Cl)c3ccccc3oc2=O)cc1`: the IC50 in the series on B16-F10 was found to be 180 nM; at Carbonic anhydrase 9, 188 nM; with MCF7 it was 58 nM. In [1], the MCC was determined as 0.62 µmol.
The matching figures for `Cc1ccc2oc(=O)c(/C=N/c3ccc(S(=O)(=O)Nc4nccc(C)n4)cc3)c(Cl)c2c1`: 270 nM, 48 nM, 61 nM and 0.56 µmol.
`Cc1ccc2oc(=O)c(/C=N/c3ccc(S(=O)(=O)NC(=N)N)cc3)c(Cl)c2c1`: the figures for the IC50 in the series on B16-F10, on Carbonic anhydrase 9 and in the series with MCF7 were 240 nM, 50 nM and 67 nM, respectively.
With `NS(=O)(=O)c1ccc(/N=C/c2c(Cl)c3ccccc3oc2=O)cc1`, the IC50 with B16-F10 was 300 nM; at Carbonic anhydrase 9 it was 91 nM; with MCF7, 120 nM. Also, the MCC in series [1] stood at 0.58 µmol.
Consider `Cc1cc(NS(=O)(=O)c2ccc(/N=C/c3c(Cl)c4cc(C(C)(C)C)cc(C(C)(C)C)c4oc3=O)cc2)no1`, for which the IC50 amounted to 240 nM with B16-F10, 43 nM on Carbonic anhydrase 9 and 64 nM in the series on MCF7.
The corresponding values for `Cc1ccnc(NS(=O)(=O)c2ccc(/N=C/c3c(Cl)c4ccccc4oc3=O)cc2)n1` are 230 nM, 84 nM and 31 nM.
As for `Cc1ccc2oc(=O)c(/C=N/c3ccc(S(=O)(=O)Nc4nccs4)cc3)c(Cl)c2c1`, the results for the IC50 with B16-F10, on Carbonic anhydrase 9 and in the series on MCF7 were 280 nM, 87 nM and 33 nM, respectively.
Take `Cc1cc(C)nc(NS(=O)(=O)c2ccc(/N=C/c3c(Cl)c4ccccc4oc3=O)cc2)n1`: the Activity with A549 [2] is 2.04%; in the series with A549 [5], 4.14%; in the series on A549 [6], 6.8%; with A549 [7], 6.28%; in the series on A549 [8] it was 9.24%; in the series with A549 [9], 1.58%. For the same compound, the Activity is recorded as 5.09% with A549 [10]; 9.62% with A549 [11]; 8.99% in the series on A549 [12]; 19.6% in the series with A549 [13]; 12.1% with A549 [15]; 6.54% in the series on A549 [17]. The viability at 160 µg/mL with A549 [3] came out at 72.2%. The viability at 10 µg/mL in the series on A549 [4] was 81.2%. In addition, the IC50 was 170 nM in the series with B16-F10, 124 nM at Carbonic anhydrase 9 and 20 nM with MCF7. The viability at 40 µg/mL in the series with A549 [14] turned out to be 85.1%. Further, the viability at 2.5 µg/mL in the series on A549 [16] was 69.4%.
Compound `COc1cccc2c1C(=O)c1c(O)c3c(c(O)c1C2=O)C[C@@](O)(C(=O)CO)C[C@@H]3O[C@H]1C[C@H](N)[C@H](O)[C@H](C)O1` [DOXORUBICIN] registered an IC50 with B16-F10 of 72 nM.
In the case of `CC(C)(C)c1cc(C(C)(C)C)c2oc(=O)c(/C=N/c3ccc(S(=O)(=O)NC(=N)N)cc3)c(Cl)c2c1`, the figures for the IC50 in the series on B16-F10, on Carbonic anhydrase 9 and with MCF7 were 250 nM, 74 nM and 18 nM, respectively.
On to `CC(C)(C)c1cc(C(C)(C)C)c2oc(=O)c(/C=N/c3ccc(S(=O)(=O)Nc4nccs4)cc3)c(Cl)c2c1`, for which the figures for the IC50 in the series on B16-F10, at Carbonic anhydrase 9 and in the series on MCF7 were 160 nM, 51 nM and 12 nM, respectively.
For `Cc1ccc2oc(=O)c(/C=N/c3ccc(S(=O)(=O)Nc4cc(C)on4)cc3)c(Cl)c2c1`, the values for the IC50 with B16-F10, at Carbonic anhydrase 9 and in the series with MCF7 were 250 nM, 52 nM and 16 nM, respectively.
